Reference: patent US9017735B2, “Modulation of KCNQ potassium channel activity for treatment of psychiatric disorders and the symptoms thereof” (Marquette University, priority 2009, dated 2015)
“Also recorded” adds a separate entry of the source.

Tests used:
[1] = test system: KCNQ potassium channels in prefrontal cortex; experiment: Forced delayed alternation task in a T-maze (working memory), acute PCP model, brain microinfusion; assay type: in vivo, rats; conditions: for effect on deficits in forced delayed alternation task performance in a T-maze produced by phencyclidine (summary statement): phencyclidine administration in laboratory rodents, no dose stated
Protocol: This experimental paradigm involves the working memory, a prefrontal cortex dependent task, and is used to examine attention and memory function. This study was conducted to determine the role of KCNQ channels in PFC in regulation of memory.
Microinjection and Behavioral Experiments. Stainless Steel cannulae were implanted bilaterally 1 mm above nucleus accumbens or implanted in prefrontal cortex. Rats were permitted a minimum of 7 days recovery from surgery. Drugs were injected using an injection needle that extended 1 mm beyond the tip of the guide cannulae. […] In experiments where two drugs were delivered into accumbens, the microinjections were separated by 15 minutes. Behavioral activity then was monitored as discussed in the Results.
(§1) Drugs. All drugs were purchased from commercial sources and dissolved in saline. […] All drug doses were nmol per side and were injected bilaterally into the specified brain region.

[2] = test system: KCNQ (Kv7) potassium channels; experiment: Social interaction behavior, acute PCP model of schizophrenia; assay type: in vivo, rats; conditions: for effect of channel blocker alone on level of social interaction: 15 minutes before social interaction arena; for reversal of PCP-induced social interaction deficit: p<0.05 vs. Sal/PCP
[3] = test system: KCNQ (Kv7) potassium channels; experiment: Prepulse inhibition (PPI) of the startle response, acute PCP model of schizophrenia; assay type: in vivo, rats; conditions: for effect on deficits in prepulse inhibition produced by phencyclidine (summary statement): phencyclidine administration in laboratory rodents, no dose stated
Description: The startle response is produced by delivery of a sudden and intense sensory stimulus pulse (120 db sound) and can be inhibited by exposure to a weaker prepulse (62, 66, or 75 db) which is slightly above the background noise level (60 db). […] PPI has been used as a measure of sensory information processing in rodents and humans. […] A cocktail mixture of XE991 and PCP dissolved in saline was used in these studies. N=38 rats per treatment. *p<0.05 vs. Sal/Sal; +p<0.05 vs. Sal/PCP.
as §1

[4] = test system: KCNQ (Kv7) potassium channels; experiment: Social interaction behavior, acute PCP model of schizophrenia; assay type: in vivo, rats; conditions: phencyclidine administration in laboratory rodents; no dose stated
Description: (§2) Social interaction deficit is considered to be a negative symptom of schizophrenia and can be induced in rodents by acute PCP or Ketamine administration and can be reversed by antipsychotics. […] A cocktail mixture of XE991 and PCP dissolved in saline was used in these studies. *p<0.05 vs. Sal/Sal; +p<0.05 vs. Sal/PCP; N=25-42 rats per treatment.
as §2, with “DMP543” for “XE991”, “40% DMSO” for “saline”, “N=10-28” for “N=25-42”, “treatment. […]” for “treatment.”

[5] = comparative statement among the DuPont channel blockers; cited from earlier work
KCNQ channel = conditions: comparative statement among the DuPont channel blockers; cited from earlier work

With `c1ccc(C2(N3CCCCC3)CCCCC2)cc1` [PCP, phencyclidine] the “effect of PCP alone on working memory” value ([1]; PCP 3.0 mg/kg s.c. one hour before behavioral testing, trained rats, p<0.05 vs. Sal/Sal) was “robust and reproducible disruption of working memory”, the “effect of PCP alone on social interaction time” value ([2]; PCP 1.5 mg/kg s.c., 15 minutes before testing, p<0.05 vs. Sal/Sal) was “significant reduction in social interaction time” and the “effect of PCP alone on prepulse inhibition” value ([3]; PCP 1.5 mg/kg s.c., all three prepulses, p<0.05 vs. Sal/Sal) was “reduced the prepulse inhibition at all three prepulses; also recorded: disrupts the prepulse inhibition”.
In the case of `O=C1c2ccccc2C(Cc2ccnc(F)c2)(Cc2ccnc(F)c2)c2ccccc21` [DMP543, 10,10-bis(2-fluoro-4-pyridinylmethyl)-9(10H)-anthracenone], the “effect on deficits in social interaction produced by phencyclidine (summary statement)” value [4] is given as “attenuate or fully reverse”, the “effect on deficits in forced delayed alternation task performance in a T-maze produced by phencyclidine (summary statement)” value [1] is given as “attenuate or fully reverse” and the serum half-life [5] is given as “higher serum half-life”. The “potency at KCNQ channel” value (KCNQ channel) was “higher potency”, the “effect of channel blocker alone on level of social interaction” value ([2]; DMP543 0.15 mg/kg s.c. alone) was “did not significantly modulate” and the “reversal of PCP-induced social interaction deficit” value ([2]; DMP543 0.15 mg/kg s.c. co-administered with PCP 1.5 mg/kg s.c. (cocktail in 40% DMSO)) was “significantly reversed the deficit”. The “reversal of PCP-induced social interaction deficit” value ([2]; DMP543 0.15 mg/kg s.c. co-administered with PCP 1.5 mg/kg s.c. (cocktail in 40% DMSO), listed as DM543) was “reversed” and the “effect on deficits in prepulse inhibition produced by phencyclidine (summary statement)” value [3] was “attenuate or fully reverse”.
For `O=C1N(c2ccccc2)c2ccccc2C1(Cc1ccncc1)Cc1ccncc1` [Linopirdine, 3,3-bis(4-pyridinylmethyl)-1-phenylindolin-2-one], the “effect on deficits in social interaction produced by phencyclidine (summary statement)” value [4] was “attenuate or fully reverse” and the “effect on deficits in prepulse inhibition produced by phencyclidine (summary statement)” value [3] was “attenuate or fully reverse”.
In the case of `O=C1c2ccccc2C(Cc2ccncc2)(Cc2ccncc2)c2ccccc21` [XE991, 10,10-bis(4-pyridinylmethyl)-9(101-1)-anthracenone], the “effect on deficits in social interaction produced by phencyclidine (summary statement)” value [4] is reported as “attenuate or fully reverse”, the “effect of channel blocker alone on memory and performance in delayed alternation task” value ([1]; XE991 60 nmol/1 ul/1 min, acute bilateral infusion into prefrontal cortex, alone) is reported as “did not disrupt the memory and performance” and the “reversal of PCP-induced working memory deficits” value ([1]; XE991 60 nmol/1 μl/1 min microinfusion into PFC 5 minutes before PCP 3.0 mg/kg s.c., p<0.05 vs. Sal/PCP) is reported as “reversed the PCP-induced memory deficits”. For the same compound, the “effect on PCP-mediated working memory disruption” value ([1]; XE991 microinjected in the nucleus accumbens (data not shown)) was “no effect”, the “effect on deficits in forced delayed alternation task performance in a T-maze produced by phencyclidine (summary statement)” value [1] was “attenuate or fully reverse” and the “effect of channel blocker alone on level of social interaction” value ([2]; XE991 0.5 mg/kg s.c. alone) was “did not significantly modulate”. For the same compound, the “reversal of PCP-induced social interaction deficit” value ([2]; XE991 0.5 mg/kg s.c. co-administered with PCP 1.5 mg/kg s.c. (cocktail in saline)) was “reversed the deficit”, the “effect of channel blocker alone on prepulse inhibition” value ([3]; XE991 0.5 mg/kg s.c. alone, 10 minutes before startle chamber, prepulses 62, 66, 75 db) was “did not show any disruption of the prepulse inhibition” and the “reversal of PCP-induced deficits in PPI” value ([3]; XE991 0.5 mg/kg s.c. with PCP 1.5 mg/kg s.c. (cocktail in saline), 66 db prepulse, p<0.05 vs. Sal/PCP) was “reversed the PCP-induced deficits in PPI”. For the same compound, the “effect on deficits in prepulse inhibition produced by phencyclidine (summary statement)” value [3] was “attenuate or fully reverse”.
